Patent US20140066439A1, “OSTEOCLAST ACTIVITY” (Katholieke Universiteit Leuen, K.U.Leuven R&D, priority 2010, published 2014)
“Also recorded” adds a separate entry of the source.

Tests used:
Type in all cases: cell-based, human
[1] = system: PBMCs from critically ill patients; test: Osteoclast formation (TRAP staining, day 14) in PBMCs from critically ill patients cultured in critically ill patient serum; conditions: low doses, compounds added d1-d14, TRAP staining at day 14
Description: We have determined that the treatment of patient's peripheral blood mononuclear cell (PBMCs), in particular, PBMCs of critically ill patients with autophagy inducers can be used to suppress enhanced osteoclastogenesis. It turned out that a particular advantage is that such autophagy inducers can be targeted to particularly treat the PBMCs.

[2] = system: Peripheral Blood Mononuclear Cells (PBMCs); test: Osteoclast formation: TRAP positive multinuclear cells in PBMC cultures; conditions: for TRAP positive multinuclear cells (osteoclast formation): spermidine 10^-8 M; for spontaneous osteoclast formation: 14 days
Protocol: PBMCs were isolated from the whole blood of patients or healthy volunteers by means of Ficoll-Paque Plus (GE Healthcare, Brussels, Belgium) density gradient centrifugation according to the manufacturer's instructions. Heparinized whole blood (20 ml) was drawn from each individual and diluted 1:1 with alpha minimal essential medium (α-MEM; Lonza, Braine-l'Alleud, Belgium), before being layered over Ficoll-Paque and centrifuged at 450 g for 40 min. The mononuclear cell interface was then removed and washed 3 times with α-MEM. Cells were stored in liquid nitrogen until use and seeded at a density of 5×10^5 cells per well. All cultures were performed in quadruplicate in 16-well culture slides (VWR, Leuven, Belgium) or 16-well BD Biocoat Osteologic Slides (BD Biosciences), and cells were cultured in α-MEM supplemented with 10% FBS, 100 IU/ml penicillin and 100 μg/ml streptomycin (“complete medium”), or complete medium plus M-CSF (25 ng/ml) and RANKL (30 ng/ml). In order to study the effect of circulating factors on osteoclast formation, PBMCs were also grown in α-MEM containing 10% human healthy volunteer serum (HS) or 10% patient serum (PS), in the presence or absence of M-CSF (25 ng/ml) and RANKL (30 ng/ml). For cytokine neutralization experiments, PBMCs were grown in α-MEM/10% PS for 14 days, in the presence of varying concentrations of anti-TNF-α and/or anti-IL-6 (R&D Systems, Abingdon, UK). All cultures were maintained at 37° C. in a humidified atmosphere with 5% CO2.
(§1) After 14 days, PBMCs were fixed and stained for the osteoclast-specific marker tartrate-resistant acid phosphate (TRAP), and the nuclear marker DAPI, as previously described. The formation of TRAP positive multi-nucleated (more than three nuclei) cells was quantified by counting the multi-nuclear stained cells in each well (D'Amelio P, Grimaldi A, Pescarmona G P, Tamone C, Roato I, Isaia G. Spontaneous osteoclast formation from peripheral blood mononuclear cells in postmenopausal osteoporosis. FASEB J. 2005; 19(3):410-2.). Filamentous (F)-actin rings representing active osteoclasts were visualized after staining of the actin cytoskeleton with the toxin phalloidin conjugated to FITC, and quantified by counting, as described above. […] Lacunar resorption was determined by measuring the total area unstained by Von-Kossa (total area resorbed) using ImageJ software (National Institute of Health, MD, USA), and was expressed as the total percentage of the surface reabsorbed. […]

p62 protein = test: Autophagy marker p62 protein expression (western blot) in PBMCs/osteoclasts; conditions: healthy PBMCs, RANKL/MCSF stimulated, spermidine 2×10^-8 M, 14 days
Description: We also measured markers of autophagy in the cell lysates from these experiments. The concentration of proteins we obtained were quite low, and there was insufficient protein to measure anything by western blotting in the “sick spermidine” group. […] There was no effect of spermidine on the healthy PBMCs (FIG. 6).
FIG. 6 concerns autophagy marker p62 protein expression in healthy and sick PBMCs/osteoclasts (RANKL/MCSF stimulated) and the effect of spermidine on healthy PBMCs/osteoclasts. Healthy and sick PBMCs were cultured for 14 days with or without spermidine (2×10^−8 M) in 6 well plates (5×10^6 cells/well). After 14 days, protein was extracted using the Ambion PARIS extraction kit (Applied Biosystems), and proteins quantified using the BC Protein Assay (Thermo Fischer Scientific). (A) 5 ug of protein was subjected to 15% Bis-tris gelelectrophoresis, transferred to nitrocellulose membrane and incubated at 4° C. overnight in Anti-p62 (Novus Biologicals; 1:1000). p62 protein was detected by ECL following incubation with AntiMouseIgG (DAKO; 1:1000). GAPDH was used as a loading control. (B) p62 relative expression was quantified with Image QuantTL (Amersham Biosciences) and normalized to GAPDH (n=3; ***p≦0.05 vs. Healthy).

[3] = system: Peripheral Blood Mononuclear Cells (PBMCs); test: Osteoclast resorption of a hydroxyapatite layer (Von Kossa, ImageJ) by PBMC-derived osteoclasts; conditions: 14 days; for osteoclast activity (resorption): healthy PBMCs stimulated with RANKL and M-CSF, dose response, 10^-6, 10^-7 and 10^-8 M
Protocol: PBMCs were isolated from the whole blood of patients or healthy volunteers by means of Ficoll-Paque Plus (GE Healthcare, Brussels, Belgium) density gradient centrifugation according to the manufacturer's instructions. Heparinized whole blood (20 ml) was drawn from each individual and diluted 1:1 with alpha minimal essential medium (α-MEM; Lonza, Braine-l'Alleud, Belgium), before being layered over Ficoll-Paque and centrifuged at 450 g for 40 min. The mononuclear cell interface was then removed and washed 3 times with α-MEM. Cells were stored in liquid nitrogen until use and seeded at a density of 5×10^5 cells per well. All cultures were performed in quadruplicate in 16-well culture slides (VWR, Leuven, Belgium) or 16-well BD Biocoat Osteologic Slides (BD Biosciences), and cells were cultured in α-MEM supplemented with 10% FBS, 100 IU/ml penicillin and 100 μg/ml streptomycin (“complete medium”), or complete medium plus M-CSF (25 ng/ml) and RANKL (30 ng/ml). […]
as §1

Question: Which “critical illness enhanced osteoclast formation” value [1] does the source give for `Nc1ncn([C@@H]2O[C@H](CO)[C@@H](O)[C@H]2O)c(=O)n1` [5-azacytidine] here?
Answer: The value was “inhibiting effect”.

Question: Which “critical illness enhanced osteoclast formation” value [1] does the source give for `CC(CN1c2ccccc2Sc2ccccc21)N(C)C` (stereo not drawn) [Promethazine, 10-(2-dimethylaminopropyl)phenothiazine] here?
Answer: The value was “inhibiting effect”.

Question: How did the “critical illness enhanced osteoclast formation” value [1] turn out when `CO[C@H]1C[C@@H]2CC[C@@H](C)[C@@](O)(O2)C(=O)C(=O)N2CCCC[C@H]2C(=O)O[C@H]([C@H](C)C[C@@H]2CC[C@@H](OCCO)[C@H](OC)C2)CC(=O)[C@H](C)/C=C(\C)[C@@H](O)[C@@H](OC)C(=O)[C@H](C)C[C@H](C)/C=C/C=C/C=C/1C` [Everolimus, 40-O-(2-hydroxyethyl)-rapamycin] was run?
Answer: The value was “inhibiting effect”.

Question: Which “critical illness enhanced osteoclast formation” value [1] does the source give for `NCCCCNCCCN` [Spermidine] here?
Answer: The value was “inhibiting effect”.

Question: And the “TRAP positive multinuclear cells (osteoclast formation)” value ([2]; healthy PBMCs stimulated with RANKL and MCSF, day 14)?
Answer: The value was “did not, however, have a significant effect”.

Question: What about the spontaneous osteoclast formation ([2]; healthy unstimulated (no RANKL or MCSF) PBMCs) of the same compound?
Answer: Its spontaneous osteoclast formation is “no effect”.

Question: And the “TRAP positive multinuclear cells (osteoclast formation)” value ([2]; sick (critically ill) PBMCs stimulated with RANKL and MCSF, day 14, vs control sick PBMCs)?
Answer: Its value is “significant reduction; also recorded: completely blocked”.

Question: And the spontaneous osteoclast formation ([2]; sick unstimulated (no RANKL or MCSF) PBMCs, increase vs healthy)?
Answer: The spontaneous osteoclast formation was “completely knocked down”.

Question: And the p62 protein expression (p62 protein)?
Answer: The p62 protein expression was “no effect”.

Question: And the “osteoclast activity (resorption)” value [3]?
Answer: The value was “reduced”.

Question: And the “osteoclast activity (resorption)” value ([3]; listed as spermidine)?
Answer: Its value is “inhibits”.

Question: And the “osteoclast resorption of hydroxyapatite layer” value ([3]; sick stimulated (RANKL/MCSF) PBMCs, increase vs healthy, spermidine 2×10^-8 M)?
Answer: Its value is “reduced; also recorded: completely blocked”.
